The source of these data is patent publication US20090117200A1, “Fungicide Composition Comprising a Phosphorous Acid Derivative, a Mandelamide Type Compound and a Further Fungicide Compound” (priority 2005, published 2009).

Assay [1] has as its system Plasmopara viticola. Kind of assay: Example 3: preventive 72 h application on vine downy mildew, phosphorous acid / mandipropamid / folpet, TAMMES analysis. It is filed as in vivo. The method, then:
(§1) Vine plants (variety Cabernet Sauvignon) were grown in a sandy soil in plastic pots with a single plant per pot.
The following ratio was tested: phosphorous acid (A)/mandipropamid (B)/folpet (C) respectively: 1,500 g a.i./ha+75 g a.i./ha+750 g a.i./ha (ratio 20/1/10).
The dose range tested for phosphorous acid equivalent (329 g/kg) was: 3,000 g a.i./ha, 1,500 g a.i./ha, 1,000 g a.i./ha, 750 g a.i./ha, 500 g a.i./ha, 250 g a.i./ha, 80 g a.i./ha, 40 g a.i./ha, 20 g a.i./ha, 10 g a.i./ha, 2 g a.i./ha and 0.2 g a.i./ha.
The dose range for mandipropamid+folpet was: 75+750 g a.i./ha, 4+40 g a.i./ha, 2+20 g a.i./ha, 1+10 g a.i./ha, 0.5+5 g a.i./ha, 0.1+1 g a.i./ha and 0.01+0.1 g a.i./ha.
For the ternary mixture phosphorous acid equivalent+mandipropamid+folpet, the dose range studied was: 1,500+75+750 g a.i./ha, 80+4+40 g a.i./ha, 40+2+20 g a.i./ha, 20+1+10 g a.i./ha, 10+0.5+5 g a.i./ha, 2+0.1+1 g a.i./ha and 0.2+0.01+0.1 g a.i./ha.
(§2) Four days before treatment, phosphorous acid was applied at 1,500 g a.i./ha on plants planned to be treated later with phosphorous acid based product alone or in mixture.
(§3) A three days interval separated treatment and inoculation. Three days after the treatment, each plant was inoculated by spraying an aqueous suspension of sporangia of Plasmopara viticola obtained from infected leaves and sensitive to all the tested compounds. The concentration of sporangia was about 100,000 units per ml.
(§4) After contamination the plants were incubated for 7 days at 22° C. in a saturated atmosphere. Seven days after contamination, symptoms were evaluated in terms of the extent of the lower surface of the leaves infected, in comparison with untreated (UTC) but contamined plants.
(§5) The efficacy of the treatment was calculated using the Abbott formula:
(§6) efficacy=(untreated−treated/untreated)×100
(§7) The concentrations of the fungicide active substances alone or in mixture giving % efficacy for each component were determined based on the sigmoid curve dose/response model with their confidence intervals. The analysis of the results was made according to the TAMMES model (Isoboles, a graphic representation of synergism in pesticides, Neth. J. Plant Path. 70 (1964): 73-80).

Assay [2] deals with Plasmopara viticola. Kind of assay: Example 4: preventive 72 h application on vine downy mildew, phosphorous acid / mandipropamid / mefenoxam, TAMMES analysis. It is filed as in vivo. The method, then: as §1, §2, §3, §4, §5, §6, §7
Setting [3] is: sum of the components, or dose of the single compound, vine, preventive 72 h.

Each structure is given as a SMILES string.

With `OP(O)O` [phosphorous acid], the ED70 in assay [1] (Table 2 of Example 3: calculated according to efficacy observed, 70% of disease control) is reported as 6.2 g a.i./ha; in assay [2] (Table 2 of Example 4: practical 70% of disease control observed), 650 g a.i./ha. Moreover, the ED90 is 145 g a.i./ha in assay [1] (Table 2 of Example 3: calculated according to efficacy observed, 90% of disease control) and 1,500 g a.i./ha in assay [2] (Table 2 of Example 4: practical 90% of disease control observed). In assay [1] (setting [3]), the “Practical dose for 70% efficacy, total” value was 6.2 g a.i./ha. The “Practical dose for 90% efficacy, total” value in assay [1] (setting [3]) was 145 g a.i./ha.
